Measured values: patent publication US10478501B2, “Method of treating disorders using a pharmaceutical composition of oligopeptides” (Merck Patent GmbH, priority 2011, dated 2019)

What was measured:
[1] = cited from earlier work
[2] = system: HNSCC lines (FaDu, SCC-15 and SCC-25); assay: Cellular radiosensitivity by clonogenic cell survival assay, HNSCC lines; format: cell-based, human; conditions: combined with γ-radiation
Experimental: Methods: Three non-small cell lung carcinoma lines (NSCLCs) (H460, A549 and H1299) and three head and neck squamous cell carcinoma lines (HNSCCs) (FaDu, SCC-15 and SCC-25) cell lines were used for in vitro experiments. Of these, H460 and FaDu were used for in vivo testing when grown as xenografts in nude mice. The effects of cilengitide (1-50 μg/ml, 24 h) on in vitro cell viability was determined by MTS assay and on cellular radiosensitivity by clonogenic cell survival assay after exposing the cells to graded single doses of γ-radiation with or without cilengitide (given 1 h before and continued for 23 h after irradiation). In vivo effect of cilengitide on radioresponse of xenografts was assessed by tumor growth delay. When tumor xenografts reached 7 mm in diameter cilengitide treatment (30 or 60 mg/d/5 or 10 days) was initiated followed by a single dose of 15 Gy local radiation (using ^137Cs γ-ray source), when the tumors reached 8 mm.

[3] = system: MDA-MB-231 breast cancer bone metastases; assay: Experimental breast cancer bone metastases in nude rats: histology / immunofluorescence of tumor vessels; format: in vivo, nude rats (RNU strain); conditions: after 4 weeks treatment (control rats 8.8 μm; p<0.01)
Experimental: Nude rats (RNU strain) are obtained from Harlan-Winkelmann GmbH (Borchen, Germany) at the age of six weeks and housed in a specific pathogen-free environment in a mini barrier system of the central animal facility. Animals are kept under controlled conditions (21±2° C. room temperature, 60% humidity, 12 h light-dark rhythm) and offered autoclaved food and water ad libitum. Sub-confluent MDAMB-231 cells are harvested using 0.05% Trypsin-EDTA (Gibco®; Invitrogen, Karlsruhe, Germany) counted on a Neubauer's chamber and resuspended in RPMI-1640 to a final concentration of 10^5 cells in 200 μl. Rats are anesthetized using a mixture of nitrous oxide (1 l/min), oxygen (0.5 l/min) and isoflurane (1.5 vol. %). Arterial branches of the right hind leg are dissected and 10^5 cells injected into the superficial epigastric artery as described previously.^28 Bone metastases established and are observed exclusively in the femur, tibia and fibula of the right hind leg. […]
At the end of the observation period lower limbs of each animal are amputated and muscular tissue removed. […] Mean positive area fractions of SMA and collagen IV (in percent) as well as mean vessel diameters (in μm) are determined from 4 representative animals of each group analyzing 10 fields of view chosen randomly from each rat using Analysis Software (cell^F; Olympus Soft Imaging Solutions, Münster, Germany). […]

SMILES: CC(C)[C@H]1C(=O)N[C@@H](CCCN=C(N)N)C(=O)NCC(=O)N[C@@H](CC(=O)O)C(=O)N[C@H](Cc2ccccc2)C(=O)N1C [Cilengitide, cyclo-(Arg-Gly-Asp-DPhe-NMeVal)]
- MTD in humans [1]: no known MTD
- effect on radiosensitivity of HNSCC lines [2]: only an additive effect
- mean vessel diameter in bone metastases [3]: 6.6 μm
